Literature values in US20160206641A1, “RAPIDLY-[…] FILM FORMULATION OF WATER SOLUBLE […] GLYCOSIDE FOR THE TREATMENT OF […] DISEASE” (LUMINUS BIOSCIENCES INC., priority 2013, published 2016).
In brackets after ≈: the same amount, converted by molar mass.

## C[C@@H]1O[C@@H](O[C@H]2C[C@@H](O)[C@]3(CO)[C@H]4[C@H](O)C[C@]5(C)[C@@H](C6=CC(=O)OC6)CC[C@]5(O)[C@@H]4CC[C@]3(O)C2)[C@H](O)[C@H](O)[C@H]1O [ouabain, 1β,3β,5β,11α,14,19-Hexahydroxycard-20(22)-enolide 3-(6-deoxy-α-L-mannopyranoside)]
Cold water
  solubility in cold water: 10000 µg/mL (≈ 17.1 mM)
Hot water
  solubility in hot water: more than 50 mg/ml
